≈ marks a conversion by molar mass, not a printed value.
Assays:
[1] = target: T1, Carnitine O-palmitoyltransferase 1, muscle isoform (Homo sapiens, UniProt Q92523); test: SUPPLEMENTARY: Inhibition of Carnitine palmitoyltransferase 1, muscle isoform; set-up: species or system Muscle tissue
T1 sequence (Q92523 whole entry): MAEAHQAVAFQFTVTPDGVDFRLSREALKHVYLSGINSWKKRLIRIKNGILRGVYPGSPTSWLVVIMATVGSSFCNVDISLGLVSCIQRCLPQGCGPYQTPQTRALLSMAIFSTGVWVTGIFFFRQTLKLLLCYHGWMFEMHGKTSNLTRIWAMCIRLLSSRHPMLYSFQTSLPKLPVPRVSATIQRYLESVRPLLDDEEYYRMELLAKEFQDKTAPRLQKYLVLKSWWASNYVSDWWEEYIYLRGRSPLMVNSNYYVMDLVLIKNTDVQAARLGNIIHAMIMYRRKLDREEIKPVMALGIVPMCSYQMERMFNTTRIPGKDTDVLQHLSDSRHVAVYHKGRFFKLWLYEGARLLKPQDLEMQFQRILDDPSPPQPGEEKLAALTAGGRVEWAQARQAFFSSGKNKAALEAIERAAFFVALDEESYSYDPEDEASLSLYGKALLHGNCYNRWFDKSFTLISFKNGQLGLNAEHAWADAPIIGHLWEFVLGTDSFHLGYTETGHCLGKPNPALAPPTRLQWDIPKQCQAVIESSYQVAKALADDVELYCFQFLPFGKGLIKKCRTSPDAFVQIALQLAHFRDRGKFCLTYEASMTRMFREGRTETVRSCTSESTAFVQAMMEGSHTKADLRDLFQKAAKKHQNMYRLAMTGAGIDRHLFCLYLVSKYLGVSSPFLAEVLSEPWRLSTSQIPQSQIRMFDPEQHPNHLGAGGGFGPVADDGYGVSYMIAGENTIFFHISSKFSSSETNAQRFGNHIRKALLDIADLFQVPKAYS

[2] = target: T2, Carnitine O-palmitoyltransferase 2, mitochondrial (Homo sapiens, UniProt P23786); test: (§1) SUPPLEMENTARY: Inhibition of Carnitine palmitoyltransferase 2
T2 sequence (P23786 whole entry): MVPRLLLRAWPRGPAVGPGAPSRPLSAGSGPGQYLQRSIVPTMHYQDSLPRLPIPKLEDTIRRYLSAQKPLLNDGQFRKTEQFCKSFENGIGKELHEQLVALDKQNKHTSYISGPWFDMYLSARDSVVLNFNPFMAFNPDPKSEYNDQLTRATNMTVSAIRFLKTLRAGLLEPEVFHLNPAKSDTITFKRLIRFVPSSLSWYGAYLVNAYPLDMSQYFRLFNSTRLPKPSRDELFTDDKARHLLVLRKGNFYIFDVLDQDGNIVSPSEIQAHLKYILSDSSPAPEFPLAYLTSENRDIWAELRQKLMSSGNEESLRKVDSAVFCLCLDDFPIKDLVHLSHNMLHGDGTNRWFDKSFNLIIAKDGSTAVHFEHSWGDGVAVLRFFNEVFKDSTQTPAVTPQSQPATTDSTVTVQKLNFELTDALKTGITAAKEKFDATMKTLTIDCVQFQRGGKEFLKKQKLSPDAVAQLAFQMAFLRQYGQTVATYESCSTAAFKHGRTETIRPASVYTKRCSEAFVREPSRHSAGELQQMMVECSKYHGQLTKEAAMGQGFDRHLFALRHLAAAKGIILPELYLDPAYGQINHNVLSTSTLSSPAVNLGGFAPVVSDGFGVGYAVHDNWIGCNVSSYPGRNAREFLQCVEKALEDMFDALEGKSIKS

[3] = target: T3, Carnitine O-palmitoyltransferase 2, mitochondrial (Rattus norvegicus, UniProt P18886); test: as §1
T3 sequence (P18886 whole entry): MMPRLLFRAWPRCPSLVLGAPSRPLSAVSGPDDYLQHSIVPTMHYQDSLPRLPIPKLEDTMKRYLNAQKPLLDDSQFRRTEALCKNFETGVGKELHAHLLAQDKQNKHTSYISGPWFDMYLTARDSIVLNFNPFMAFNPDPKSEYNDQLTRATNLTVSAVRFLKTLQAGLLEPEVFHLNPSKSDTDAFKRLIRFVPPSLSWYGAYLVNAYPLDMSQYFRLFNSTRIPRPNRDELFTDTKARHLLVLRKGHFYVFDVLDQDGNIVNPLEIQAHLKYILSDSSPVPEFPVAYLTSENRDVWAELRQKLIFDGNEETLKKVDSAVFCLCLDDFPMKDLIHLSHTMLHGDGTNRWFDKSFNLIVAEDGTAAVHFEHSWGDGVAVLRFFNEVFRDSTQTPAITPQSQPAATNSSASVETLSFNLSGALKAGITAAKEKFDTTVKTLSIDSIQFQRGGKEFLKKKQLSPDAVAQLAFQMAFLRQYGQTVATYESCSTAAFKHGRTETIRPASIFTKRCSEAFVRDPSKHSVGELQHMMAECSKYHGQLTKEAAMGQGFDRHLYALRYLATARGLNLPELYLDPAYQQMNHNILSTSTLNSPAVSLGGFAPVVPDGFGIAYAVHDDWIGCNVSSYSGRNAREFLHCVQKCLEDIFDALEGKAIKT

[4] = target: T4, Carnitine O-palmitoyltransferase 1, liver isoform (Homo sapiens, UniProt P50416); test: (§2) SUPPLEMENTARY: Inhibition of Carnitine palmitoyltransferase 1, liver isoform
T4 sequence (P50416 whole entry): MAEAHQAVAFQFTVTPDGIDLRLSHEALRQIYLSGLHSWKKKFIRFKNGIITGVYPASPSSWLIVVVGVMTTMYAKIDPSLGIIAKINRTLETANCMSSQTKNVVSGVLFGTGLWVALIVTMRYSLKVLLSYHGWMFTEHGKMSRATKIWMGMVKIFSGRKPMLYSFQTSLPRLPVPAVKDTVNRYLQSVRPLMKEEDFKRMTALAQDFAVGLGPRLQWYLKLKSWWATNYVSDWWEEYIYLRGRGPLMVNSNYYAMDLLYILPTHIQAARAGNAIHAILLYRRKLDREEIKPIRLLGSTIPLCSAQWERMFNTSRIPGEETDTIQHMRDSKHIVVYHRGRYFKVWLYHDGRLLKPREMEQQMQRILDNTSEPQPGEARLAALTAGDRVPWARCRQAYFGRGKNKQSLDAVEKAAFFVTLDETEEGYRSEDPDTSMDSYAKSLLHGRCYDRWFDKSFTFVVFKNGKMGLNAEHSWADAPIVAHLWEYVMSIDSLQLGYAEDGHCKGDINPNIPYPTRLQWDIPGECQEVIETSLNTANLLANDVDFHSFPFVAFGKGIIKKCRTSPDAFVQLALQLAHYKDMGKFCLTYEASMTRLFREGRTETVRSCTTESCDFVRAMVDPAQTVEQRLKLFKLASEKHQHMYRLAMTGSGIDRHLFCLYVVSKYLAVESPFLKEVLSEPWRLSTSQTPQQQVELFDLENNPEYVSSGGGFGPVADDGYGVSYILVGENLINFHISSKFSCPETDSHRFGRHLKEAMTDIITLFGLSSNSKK

[5] = target: T5, Carnitine O-palmitoyltransferase 1, liver isoform (Rattus norvegicus, UniProt P32198); test: as §2
T5 sequence (P32198 whole entry): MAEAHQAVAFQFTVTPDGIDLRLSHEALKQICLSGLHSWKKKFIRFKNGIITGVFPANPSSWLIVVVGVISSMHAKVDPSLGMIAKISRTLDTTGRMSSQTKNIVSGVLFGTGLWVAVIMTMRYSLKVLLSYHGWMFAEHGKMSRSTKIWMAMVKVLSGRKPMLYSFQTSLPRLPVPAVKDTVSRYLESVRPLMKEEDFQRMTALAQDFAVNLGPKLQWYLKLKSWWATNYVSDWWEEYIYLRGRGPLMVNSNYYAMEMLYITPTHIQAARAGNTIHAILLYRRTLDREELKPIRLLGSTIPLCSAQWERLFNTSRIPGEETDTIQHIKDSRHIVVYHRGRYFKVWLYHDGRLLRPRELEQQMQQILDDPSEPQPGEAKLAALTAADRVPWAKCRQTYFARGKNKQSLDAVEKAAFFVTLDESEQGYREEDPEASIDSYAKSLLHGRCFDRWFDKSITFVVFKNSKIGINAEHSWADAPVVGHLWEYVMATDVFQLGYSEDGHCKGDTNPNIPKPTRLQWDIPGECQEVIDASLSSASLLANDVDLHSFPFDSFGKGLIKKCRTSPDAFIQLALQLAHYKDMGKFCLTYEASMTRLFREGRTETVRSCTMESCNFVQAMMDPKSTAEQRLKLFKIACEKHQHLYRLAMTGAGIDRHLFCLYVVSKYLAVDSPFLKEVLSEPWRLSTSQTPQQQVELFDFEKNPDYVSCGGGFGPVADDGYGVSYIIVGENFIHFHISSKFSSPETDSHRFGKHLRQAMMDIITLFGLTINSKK

[6] = SUPPLEMENTARY: Lyophilisation Solubility Assay (LYSA); type: physicochemical; conditions: read-out: Kinetic_solubility
[7] = SUPPLEMENTARY: Lipophilicity (log D) Determination by high-throughput shake-flask; type: physicochemical; conditions: octanol/water
[8] = SUPPLEMENTARY: PAMPA permeability assay; type: physicochemical; conditions: read-out: Permeability

IC50 [1] | IC50 [2] | IC50 [3] | IC50 [4] | IC50 [5] | solubility kinetic [6] | logD [7] | Papp [8] | Compound
> 100000 nM | > 100000 nM | > 100000 nM | 26.4 nM | 65.6 nM | 37 µg/mL (≈ 84.6 µM) | 3.22 | 1.69 ×10⁻⁶ cm/s | CC(=O)Nc1cc(F)cc(-c2n[nH]c([C@H]3CCCCN3C(=O)COc3ccccc3)n2)c1
> 100000 nM | 22000 nM | > 100000 nM | 80.7 nM | 143 nM | 6 µg/mL (≈ 15.4 µM) | 3.16 | 5.52 ×10⁻⁶ cm/s | N#Cc1ccc(-c2nc([C@H]3CCCCN3C(=O)COc3ccccc3)no2)cc1
> 100000 nM | 47100 nM | 57100 nM | 165 nM | 1090 nM | 147 µg/mL (≈ 340 µM) | 2.17 | 4.37 ×10⁻⁶ cm/s | CN(C)C(=O)c1ccc(-c2noc(C3C4CC4CN3C(=O)COc3ccccc3)n2)cc1 (stereo not given)
> 100000 nM | 4740 nM | > 100000 nM | 98.2 nM | 154 nM | 8 µg/mL (≈ 18.4 µM) | 2.89 | 3.59 ×10⁻⁶ cm/s | O=C1Nc2ccc(-c3noc([C@H]4CCCCN4C(=O)COc4ccccc4)n3)cc2CO1
> 100000 nM | 7280 nM | 79200 nM | 166 nM | 247 nM | 33 µg/mL (≈ 84.7 µM) | 2.54 | 8.44 ×10⁻⁶ cm/s | N#Cc1ccc(-c2nc([C@H]3CCCCN3C(=O)COc3ccccc3)no2)cn1
> 100000 nM | > 100000 nM | > 100000 nM | 35.8 nM | 89.3 nM | 35 µg/mL (≈ 80.6 µM) | 3.12 | 3.74 ×10⁻⁶ cm/s | O=C1COc2ccc(-c3nc([C@H]4CCCCN4C(=O)COc4ccccc4)no3)cc2N1
1720 nM | > 100000 nM | > 100000 nM | 125 nM | 75.9 nM | 31 µg/mL (≈ 61.5 µM) | 0.72 | 1.53 ×10⁻⁶ cm/s | COc1ccc(Cl)cc1CN1C(=O)CSc2ccc(C(=O)Nc3nc(CC(=O)O)cs3)cc21
> 100000 nM | > 100000 nM | > 100000 nM | 67 nM | 162 nM | < 1 µg/mL | 2.89 | 1 ×10⁻⁶ cm/s | O=C(COc1ccccc1)N1CCCC[C@@H]1c1noc(-c2cccc(N3CCCS3(=O)=O)c2)n1
> 100000 nM | > 100000 nM | > 100000 nM | 40.8 nM | 84.5 nM | < 1 µg/mL | > 3 | 1.26 ×10⁻⁶ cm/s | COc1ccc(Cl)cc1S(=O)(=O)N1CCOc2ccc(C(=O)Nc3ccccc3)cc21
> 100000 nM | 12000 nM | > 100000 nM | 59.1 nM | 334 nM | 48 µg/mL (≈ 108 µM) | 2.35 | 3.47 ×10⁻⁶ cm/s | O=C(COc1ccccc1)N1CCCC[C@@H]1c1noc(-c2cccc(-n3cn[nH]c3=O)c2)n1
827 nM | > 100000 nM | > 100000 nM | 96.8 nM | 70.2 nM | 6 µg/mL (≈ 11.6 µM) | 0.11 | 1.86 ×10⁻⁶ cm/s | COc1ccc(Cl)cc1S(=O)(=O)N1CCOc2ccc(C(=O)Nc3ccc(CC(=O)O)cc3)cc21
2130 nM | > 100000 nM | > 100000 nM | 97.4 nM | 32.3 nM | 532 µg/mL (≈ 1060 µM) | 0.33 | 4.09 ×10⁻⁶ cm/s | COc1ccc(Cl)cc1S(=O)(=O)N1CCc2ccc(C(=O)Nc3ccc(CC(=O)O)cc3)cc21
2560 nM | > 100000 nM | > 100000 nM | 236 nM | 440 nM | 438 µg/mL (≈ 816 µM) | 1.34 | 3.2 ×10⁻⁶ cm/s | COc1ccc(Cl)cc1CN(C(=O)C(C)C)c1cc(C(=O)Nc2nc(CC(=O)O)cs2)ccc1Cl
39000 nM | 65000 nM | 94400 nM | 136 nM | 388 nM | 38 µg/mL (≈ 91.3 µM) | 2.51 | 5.4 ×10⁻⁶ cm/s | O=C1Cc2cc(-c3noc(C4C5CC5CN4C(=O)COc4ccccc4)n3)ccc2N1 (stereo not given)
> 100000 nM | > 100000 nM | > 100000 nM | 79.4 nM | 916 nM | 46.5 µg/mL (≈ 115 µM) | 2.22 | 2.14 ×10⁻⁶ cm/s | O=C(COc1ccccc1)N1CCCC[C@@H]1c1noc(-c2ccc3[nH]nnc3c2)n1
